In patent US8258114B2, “Modulation of glucose-6-phosphatase translocase expression” (Isis Pharmaceuticals, Inc., priority 2004, dated 2012):
Like-named read-outs stand apart in the source and are kept apart here.

How the values were obtained:
[1] = rat, in vivo
[2] = tested on: glucose-6-phosphatase translocase mRNA; assay: Target reduction in liver: rat dose-response study (Table 12); type: in vivo; conditions: Sprague-Dawley rats; for % Inhibition, target reduction in liver: three weeks
Procedure: Each treatment group was comprised of 4 animals.
At the end of the treatment period, animals were sacrificed and target reduction in liver was measured by real-time PCR as described in other examples herein. Results are shown in Table 12 as the average percent reduction in glucose-6-phosphatase translocase levels as compared to saline treated control.

[3] = tested on: rat glucose-6-phosphatase translocase mRNA; assay: Reduction of glucose-6-phosphatase translocase mRNA in liver or kidney of ZDF rats (Table 15); type: in vivo; conditions: for % Inhibition of glucose-6-phosphatase translocase, Kidney / % Inhibition of glucose-6-phosphatase translocase, Liver: alone or with rosiglitazone 3 mg/kg daily
Procedure: Saline-injected animals served as a control treatment group. At the end of the treatment period, animals were sacrificed and target reduction in liver and kidney were measured by real-time PCR as described in other examples herein. […] For example, the following primer-probe set was designed to hybridize to rat glucose-6-phosphatase translocase sequences cited in Table 1: Forward primer: [NT] (incorporated herein as SEQ ID NO: 339) Reverse primer: [NT] (incorporated herein as SEQ ID NO: 340) PCR probe: […] (incorporated herein as SEQ ID NO: 341), where FAM is the fluorescent dye and TAMRA is the quencher dye.

[4] = tested on: catalytic subunit of glucose-6-phosphatase (G6PC) mRNA; assay: Reduction of catalytic subunit of glucose-6-phosphatase (G6PC) mRNA in liver or kidney of ZDF rats (Table 15); type: in vivo, rat; conditions: alone or with rosiglitazone 3 mg/kg daily
Procedure: (§1) Saline-injected animals served as a control treatment group.
At the end of the treatment period, animals were sacrificed and target reduction in liver and kidney were measured by real-time PCR as described in other examples herein. Also measured were reductions in the catalytic subunit of glucose-6-phosphatase (G6PC) using a primer-probe set designed to hybridize to that mRNA. For example, the following primer-probe set was designed to hybridize to rat glucose-6-phosphatase translocase sequences cited in Table 1:
Results for each treatment group are shown in Table 15 as the average percent reduction in glucose-6-phosphatase translocase levels or in G6PC as compared to saline treated control.

[5] = rat, in vivo; remark: listed apart in the source
Procedure: Male Zucker fa/fa rats, about 17 to 18 weeks of age, purchased from Charles River Laboratories (Wilmington, Mass.), are maintained on a normal rodent diet. Animals are placed into treatment groups of 8 animals each. One treatment group was dosed subcutaneously twice weekly with 12.5 mg/kg of ISIS 366228 (SEQ ID NO: 203). Another treatment group was dosed twice weekly with 25 mg/kg of ISIS 366228. Other treatment groups were dosed with 12.5 mg/kg or 25 mg/kg ISIS 366228 twice weekly in combination with daily 3 mg/kg doses of rosiglitazone (Rosi) administered in powdered food. Another treatment group received the food-administered daily doses of 3 mg/kg of rosiglitazone alone. Saline-injected animals served as a control treatment group.
Tissue weights were also determined at the end of the study.

aged Zucker fa/fa rats [6] = assay: Plasma glucose levels of ZDF rats, alone or in combination with rosiglitazone (Table 16); type: in vivo, rat
Procedure: as §1
(§2) Plasma glucose levels were evaluated at the beginning of the study (Wk 0), during the first week of treatment (Wk 1), during the third week of treatment (Wk 3), and during the fifth week of treatment (Wk 5).

[7] = as above; type: in vivo, rat; conditions: alone or with Rosi
Procedure: as §1, §2

[8] = Plasma lipids (cholesterol, triglycerides, free fatty acids) in ZDF rats (Table 21); type: in vivo, rat
Procedure: as §1
To further assess the physiological effects resulting from inhibition of target mRNA with antisense oligonucleotide alone or in combination with rosiglitazone, the rats were evaluated throughout the treatment period for plasma free fatty acids, plasma cholesterol, and plasma triglyceride levels. Free fatty acids, triglycerides and cholesterol were measured by routine clinical analyzer instruments (e.g. Olympus Clinical Analyzer, Melville, N.Y.). Glucose levels were measured using a glucose analyzer, for example a YSI glucose analyzer (YSI Scientific, Yellow Springs, Ohio).

aged Zucker fa/fa rats [9] = assay: Oral glucose tolerance test in ZDF rats (Table 17); type: in vivo, rat; conditions: alone or with Rosi
Procedure: as §1
To further evaluate the effects of ISIS 366228 alone or in combination with rosiglitazone, oral glucose tolerance tests were performed during the third week of treatment. To provide a baseline glucose level, fasted blood glucose levels were measured before the challenge. Glucose was administered by oral gavage via an 18 gauge gavage needle at a dose of 1 g/kg. Plasma glucose levels were measured for 15, 30, 60, 90, and 120 minutes post-challenge, using a glucose analyzer (for example, an Ascencia Glucometer Elite XL, Bayer, Tarrytown, N.Y.).

[10] = rat, in vivo; remark: listed apart in the source
Procedure: Male Zucker fa/fa rats, about 17 to 18 weeks of age, purchased from Charles River Laboratories (Wilmington, Mass.), are maintained on a normal rodent diet. Animals are placed into treatment groups of 8 animals each. […] Another treatment group received the food-administered daily doses of 3 mg/kg of rosiglitazone alone. Saline-injected animals served as a control treatment group.
The liver transaminases, ALT and AST, were measured throughout the study.

[11] = ISIS 366228 12.5 mg/kg twice weekly
[12] = ISIS 366228 25 mg/kg twice weekly

Sequence: GTGCTTGGCGATGGTACTGA (chemistry not given here) [ISIS 366228]
- body weight (in words) [1]: did not cause increased body weight
- % Inhibition, target reduction in liver ([2]; 12.5 mg/kg twice weekly): 69%
- % Inhibition, target reduction in liver ([2]; 25 mg/kg twice weekly): 82%
- % Inhibition, target reduction in liver ([2]; 50 mg/kg twice weekly): 90%
- target mRNA levels in rat liver (in words) ([2]; 12.5 to 50 mg/kg): effective in reducing target mRNA levels in rat liver in a dose-dependent manner
- glucose-6-phosphatase translocase levels in liver and kidney (in words) [3]: reduced glucose-6-phosphatase translocase levels in liver and kidney at both doses
- % Inhibition of glucose-6-phosphatase translocase, Kidney [3, 11]: 35%
- % Inhibition of glucose-6-phosphatase translocase, Liver [3, 11]: 40%
- % Inhibition of glucose-6-phosphatase translocase, Kidney [3, 12]: 46%
- % Inhibition of glucose-6-phosphatase translocase, Liver [3, 12]: 80%
- % Inhibition of G6PC, Kidney [4, 11]: 17%
- % Inhibition of G6PC, Liver [4, 11]: 39%
- % Inhibition of G6PC, Kidney [4, 12]: 33%
- % Inhibition of G6PC, Liver [4, 12]: 0%
- renal enlargement (in words) [5]: renal enlargement associated with human glycogen storage disease type 1B is not observed
- Fat pad weight ([5]; 12.5 mg/kg): 7 grams
- Fat pad weight ([5]; 25 mg/kg): 6 grams
- plasma glucose over the course of the study (in words) (aged Zucker fa/fa rats [6]): caused reductions in plasma glucose
- Plasma glucose ([7]; ISIS 366228 12.5 mg/kg, Wk 0, saline 571): 570 mg/dL
- Plasma glucose ([7]; ISIS 366228 12.5 mg/kg, Wk 1, saline 549): 549 mg/dL
- Plasma glucose ([7]; ISIS 366228 12.5 mg/kg, Wk 3, saline 552): 547 mg/dL
- Plasma glucose ([7]; ISIS 366228 12.5 mg/kg, Wk 5, saline 536): 532 mg/dL
- Plasma glucose ([7]; ISIS 366228 25 mg/kg, Wk 0): 569 mg/dL
- Plasma glucose ([7]; ISIS 366228 25 mg/kg, Wk 1): 542 mg/dL
- Plasma glucose ([7]; ISIS 366228 25 mg/kg, Wk 3): 507 mg/dL
- Plasma glucose ([7]; ISIS 366228 25 mg/kg, Wk 5): 488 mg/dL
- plasma cholesterol (CHOL) ([8]; Wk 0, ISIS 366228 12.5 mg/kg): 207 mg/dL
- plasma triglycerides (TRIG) ([8]; Wk 0, ISIS 366228 12.5 mg/kg): 460 mg/dL
- plasma cholesterol (CHOL) ([8]; Wk 0, ISIS 366228 25 mg/kg): 210 mg/dL
- plasma triglycerides (TRIG) ([8]; Wk 0, ISIS 366228 25 mg/kg): 470 mg/dL
- plasma cholesterol (CHOL) ([8]; Wk 1, ISIS 366228 12.5 mg/kg): 201 mg/dL
- plasma triglycerides (TRIG) ([8]; Wk 1, ISIS 366228 12.5 mg/kg): 379 mg/dL
- plasma cholesterol (CHOL) ([8]; Wk 1, ISIS 366228 25 mg/kg): 196 mg/dL
- plasma triglycerides (TRIG) ([8]; Wk 1, ISIS 366228 25 mg/kg): 307 mg/dL
- plasma cholesterol (CHOL) ([8]; Wk 3, ISIS 366228 12.5 mg/kg): 196 mg/dL
- plasma triglycerides (TRIG) ([8]; Wk 3, ISIS 366228 12.5 mg/kg): 416 mg/dL
- plasma cholesterol (CHOL) ([8]; Wk 3, ISIS 366228 25 mg/kg): 206 mg/dL
- plasma triglycerides (TRIG) ([8]; Wk 3, ISIS 366228 25 mg/kg): 354 mg/dL
- plasma cholesterol (CHOL) ([8]; Wk 5, ISIS 366228 12.5 mg/kg): 176 mg/dL
- plasma triglycerides (TRIG) ([8]; Wk 5, ISIS 366228 12.5 mg/kg): 478 mg/dL
- plasma cholesterol (CHOL) ([8]; Wk 5, ISIS 366228 25 mg/kg): 183 mg/dL
- plasma triglycerides (TRIG) ([8]; Wk 5, ISIS 366228 25 mg/kg): 472 mg/dL
- plasma cholesterol (in words) ([8]; compared with saline or rosiglitazone alone): prevented increases in plasma cholesterol
- plasma glucose, OGTT (aged Zucker fa/fa rats [9]; week 3, ISIS 366228 12.5 mg/kg, 0 min (fasted)): 317 mg/dL
- plasma glucose, OGTT (aged Zucker fa/fa rats [9]; week 3, ISIS 366228 12.5 mg/kg, 15 min): 418 mg/dL
- plasma glucose, OGTT (aged Zucker fa/fa rats [9]; week 3, ISIS 366228 12.5 mg/kg, 30 min): 553 mg/dL
- plasma glucose, OGTT (aged Zucker fa/fa rats [9]; week 3, ISIS 366228 12.5 mg/kg, 60 min): 485 mg/dL
- plasma glucose, OGTT (aged Zucker fa/fa rats [9]; week 3, ISIS 366228 12.5 mg/kg, 90 min): 441 mg/dL
- plasma glucose, OGTT (aged Zucker fa/fa rats [9]; week 3, ISIS 366228 12.5 mg/kg, 120 min): 444 mg/dL
- plasma glucose, OGTT (aged Zucker fa/fa rats [9]; week 3, ISIS 366228 25 mg/kg, 0 min (fasted)): 303 mg/dL
- plasma glucose, OGTT (aged Zucker fa/fa rats [9]; week 3, ISIS 366228 25 mg/kg, 15 min): 453 mg/dL
- plasma glucose, OGTT (aged Zucker fa/fa rats [9]; week 3, ISIS 366228 25 mg/kg, 30 min): 540 mg/dL
- plasma glucose, OGTT (aged Zucker fa/fa rats [9]; week 3, ISIS 366228 25 mg/kg, 60 min): 461 mg/dL
- plasma glucose, OGTT (aged Zucker fa/fa rats [9]; week 3, ISIS 366228 25 mg/kg, 90 min): 427 mg/dL
- plasma glucose, OGTT (aged Zucker fa/fa rats [9]; week 3, ISIS 366228 25 mg/kg, 120 min): 408 mg/dL
- liver transaminases ALT and AST (in words) [10]: reductions in levels of these indicators of liver function
